Experiments:
OA-HACs [1] = assay: sGAG content of OA-HAC cultures (DMB assay); assay type: cell-based, human; conditions: three individual OA-HAC donors, 100 nM peptide, 24 h, normalized to total protein (Figure 2D)
Experimental: (§1) Figure 2 Bioactivity of BMP7-derived peptides p[63−82] and p[113−132] on OA-HACs Complete peptide library screening quantitative real-time PCR dataset for peptides p[63−82] and p[113−132] is presented. (A) SOX9, COL2A1, and NKX3-2 mRNA expression in the 18 OA-HAC pool exposed to 1,000, 100, 10, or 1 nM of peptide p[63−82] and p[113−132] is shown and presented relative to control (black bars) and alongside full-length BMP7 (white bars). (B) Similar to (A) but for chondrocyte hypertrophy-associated genes RUNX2, COL10A1, and ALPL. (C) Similar to (A) but for cartilage extracellular matrix remodeling-associated genes MMP13 and ADAMTS5 and inflammation-related genes COX-2 and IL-6. […] (G) In the same OA-HAC pool of 18 OA-HAC donors from the peptide library screening, sequence dependency of peptides p[63−82] and p[113−132] was determined by exposing the OA-HAC pool to scrambled versions of peptides p[63−82] and p[113−132] […] Error bars represent mean ± SEM, and statistical significance for peptide conditions or BMP7 versus control condition as determined by unpaired two-tailed Student’s t test is represented as ∗p < 0.05, ∗∗p < 0.01, and ∗∗∗p < 0.001.
The sGAG content was measured using a modified dimethyl methylene blue (DMB) assay.[58] The absorbance of samples was read at 540 and 595 nm using a spectrophotometer (Multiskan FC; Thermo Fisher Scientific). […]

OA-HACs [2] = assay: ALP activity assay in OA-HAC cultures; assay type: cell-based, human; conditions: three individual OA-HAC donors, 100 nM peptide, 24 h, normalized to total protein (Figure 2E)
Experimental: as §1
Cells were lysed in 1.5 M Tris-HCl (pH 9.0) and 2% (v/v) Triton X-100 and homogenized by sonication (Soniprep 150 MSE). […] Total protein concentration was determined by a BCA assay. […]

alkaline phosphatase (ALP) activity (OA-HACs [2]) | Substance | sulfated glycosaminoglycan (sGAG) content (OA-HACs [1])
significant decrease | H-AAYYSEGESAFPLNSYMNAT-OH [p[63−82]] | increased
significant decrease | H-SVLYFDDSSNVILKKYRNMV-OH [p[113−132]] | 
